Measured values taken from patent US12655116B2, “Substituted isophthalic acid diamides” (Bayer Aktiengesellschaft, priority 2020, dated 2026).

How the values were obtained:
ALOMY [1] = assay: Pre-emergence herbicidal action against ALOMY; format: in vivo, Alopecurus myosuroides
Method in brief: (§1)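 Greenhouse pots of sandy loam held seeds covered with soil, onto which the compound was applied before emergence. An aqueous suspension or emulsion of WP or EC was used at 600 to 800 l/ha with 0.2% wetting agent. Percent damage was judged visually at 3 weeks.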

MATIN [2] = assay: Post-emergence herbicidal action against MATIN; format: in vivo, Matricaria inodora
Method in brief: (§2)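 A WP or EC formulation diluted in water with 0.2% wetting agent was sprayed at 600 to 800 l/ha onto one-leaf-stage plants grown in sandy loam. About 3 weeks later, action was rated visually in percent, 100% being dead plants.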

PHBPU [3] = assay: Post-emergence herbicidal action against PHBPU; format: in vivo, Pharbitis purpurea
Method in brief: as §2

AVEFA = assay: Pre-emergence herbicidal action against AVEFA; format: in vivo, Avena fatua; conditions: Avena fatua, 504 h; 80 g/ha, pre-emergence
Method in brief: as §1

AMARE [4] = assay: Post-emergence herbicidal action against AMARE; format: in vivo, Amaranthus retroflexus; conditions: 20 g/ha, visual assessment about 3 weeks after treatment, 100% = plants have died, 0% = like control plants
Method in brief: as §2

VERPE [5] = assay: Pre-emergence herbicidal action against VERPE; format: in vivo, Veronica persica
Method in brief: as §1

PHBPU [6] = assay: Pre-emergence herbicidal action against PHBPU; format: in vivo, Pharbitis purpurea; conditions: dosage 80 g/ha
Method in brief: as §1

ABUTH [7] = assay: Pre-emergence herbicidal action against ABUTH; format: in vivo, Abutilon theophrasti
Method in brief: as §1

DIGSA [8] = assay: Post-emergence herbicidal action against DIGSA; format: in vivo, Digitaria sanguinalis; conditions: Digitaria sanguinalis, 504 h
Method in brief: as §2

VIOTR [9] = assay: Post-emergence herbicidal action against VIOTR; format: in vivo, Viola tricolor
Method in brief: as §2

POLCO = assay: Pre-emergence herbicidal action against POLCO; format: in vivo, Polygonum convolvulus
Method in brief: as §1

AMARE [10] = assay: Pre-emergence herbicidal action against AMARE; format: in vivo, Amaranthus retroflexus
Method in brief: as §1

ECHCG [11] = assay: Pre-emergence herbicidal action against ECHCG; format: in vivo, Echinochloa crus-galli; conditions: 80 g/ha
Method in brief: as §1

SETVI [12] = assay: Pre-emergence herbicidal action against SETVI; format: in vivo, Setaria viridis
Method in brief: as §1

SETVI [13] = assay: Post-emergence herbicidal action against SETVI; format: in vivo, Setaria viridis
Method in brief: as §2

MATIN [14] = assay: Pre-emergence herbicidal action against MATIN; format: in vivo, Matricaria inodora
Method in brief: as §1

VERPE [15] = assay: Post-emergence herbicidal action against VERPE; format: in vivo, Veronica persica
Method in brief: as §2

DIGSA [16] = assay: Pre-emergence herbicidal action against DIGSA; format: in vivo, Digitaria sanguinalis; conditions: Digitaria sanguinalis, 504 h
Method in brief: as §1

ECHCG [17] = assay: Post-emergence herbicidal action against ECHCG; format: in vivo, Echinochloa crus-galli
Method in brief: as §2

VIOTR [18] = assay: Pre-emergence herbicidal action against VIOTR; format: in vivo, Viola tricolor
Method in brief: as §1

ABUTH [19] = assay: Post-emergence herbicidal action against ABUTH; format: in vivo, Abutilon theophrasti; conditions: visual assessment about 3 weeks after treatment vs untreated controls
Method in brief: as §2

ALOMY [20] = assay: Post-emergence herbicidal action against ALOMY; format: in vivo, Alopecurus myosuroides; conditions: dosage 20 g/ha, visual assessment about 3 weeks after treatment vs untreated controls
Method in brief: as §2

[21] = Tripleurospermum inodorum, 504 h, dosage 20 g/ha
[22] = Setaria viridis, 504 h, dosage 20 g/ha
[23] = 80 g/ha, scored visually after 3 weeks vs untreated controls (100% = plants have died, 0% = like control plants)

CCc1c(C(=O)Nc2nnnn2C)ccc(C(F)F)c1C(=O)NC1CC1 [Example 1-279]
pest or weed control at 80 g/ha (ALOMY [1]; Alopecurus myosuroides, 504 h, 80 g/ha, pre-emergence, scored visually after 3 weeks vs untreated controls (100% = plants have died, 0% = like control plants)): 80%
pest or weed control at 5 g/ha (MATIN [2]; Tripleurospermum inodorum, 504 h, dosage 5 g/ha): 90%
pest or weed control at 20 g/ha (MATIN [2]; [21]): 90%
pest or weed control at 5 g/ha (PHBPU [3]; Ipomoea purpurea, 504 h, dosage 5 g/ha): 90%
pest or weed control at 20 g/ha (PHBPU [3]; Ipomoea purpurea, 504 h, dosage 20 g/ha): 90%
pest or weed control at 80 g/ha (AVEFA): 90%
pest or weed control at 20 g/ha (AMARE [4]; Amaranthus retroflexus, 504 h): 100%
pest or weed control at 80 g/ha (VERPE [5]; Veronica persica, 504 h, dosage 80 g/ha): 90%
pest or weed control at 80 g/ha (PHBPU [6]; Ipomoea purpurea, 504 h): 90%
pest or weed control at 80 g/ha (ABUTH [7]; Abutilon theophrasti, 504 h, 80 g/ha, scored visually after 3 weeks vs untreated controls (100% = plants have died, 0% = like control plants)): 100%
pest or weed control at 20 g/ha (ABUTH [7]; Abutilon theophrasti, 504 h, dosage 20 g/ha, scored visually after 3 weeks vs untreated controls, 100% = plants have died, 0% = like control plants, read-out: Pre-emergence action against ABUTH (herbicidal activity in percent)): 100%
pest or weed control at 5 g/ha (DIGSA [8]; 5 g/ha): 90%
pest or weed control at 20 g/ha (DIGSA [8]; 20 g/ha): 90%
pest or weed control at 5 g/ha (VIOTR [9]; Viola tricolor, 504 h, 5 g/ha): 90%
pest or weed control at 20 g/ha (VIOTR [9]; Viola tricolor, 504 h, 20 g/ha): 90%
pest or weed control at 20 g/ha (POLCO; Fallopia convolvulus, 504 h, dosage 20 g/ha): 80%
pest or weed control at 80 g/ha (POLCO; Fallopia convolvulus, 504 h, dosage 80 g/ha): 90%
pest or weed control at 20 g/ha (AMARE [10]; Amaranthus retroflexus, 504 h, 20 g/ha, scored visually after 3 weeks vs untreated controls, 100% = plants have died, 0% = like control plants): 100%
pest or weed control at 80 g/ha (AMARE [10]; Amaranthus retroflexus, 504 h, 80 g/ha, scored visually after 3 weeks vs untreated controls, 100% = plants have died, 0% = like control plants): 100%
pest or weed control at 80 g/ha (ECHCG [11]; Echinochloa crus-galli, 504 h): 100%
pest or weed control at 20 g/ha (SETVI [12]; [22]): 80%
pest or weed control at 80 g/ha (SETVI [12]; Setaria viridis, 504 h, dosage 80 g/ha): 100%
pest or weed control at 5 g/ha (SETVI [13]; Setaria viridis, 504 h, dosage 5 g/ha): 90%
pest or weed control at 20 g/ha (SETVI [13]; [22]): 90%
pest or weed control at 20 g/ha (MATIN [14]; [21]): 100%
pest or weed control at 80 g/ha (MATIN [14]; Tripleurospermum inodorum, 504 h, dosage 80 g/ha): 100%
pest or weed control at 5 g/ha (VERPE [15]; Veronica persica, 504 h, 5 g/ha): 80%
pest or weed control at 20 g/ha (VERPE [15]; Veronica persica, 504 h, 20 g/ha): 100%
pest or weed control at 20 g/ha (DIGSA [16]; dosage 20 g/ha): 100%
pest or weed control at 80 g/ha (DIGSA [16]; dosage 80 g/ha): 100%
pest or weed control at 5 g/ha (ECHCG [17]; Echinochloa crus-galli, 504 h, dosage 5 g/ha): 80%
pest or weed control at 20 g/ha (ECHCG [17]; Echinochloa crus-galli, 504 h, dosage 20 g/ha): 90%
pest or weed control at 20 g/ha (VIOTR [18]; Viola tricolor, 504 h, dosage 20 g/ha): 100%
pest or weed control at 80 g/ha (VIOTR [18]; Viola tricolor, 504 h, dosage 80 g/ha): 100%
pest or weed control at 5 g/ha (ABUTH [19]; Abutilon theophrasti, 504 h, dosage 5 g/ha): 80%
pest or weed control at 20 g/ha (ABUTH [19]; Abutilon theophrasti, 504 h, dosage 20 g/ha): 90%

CC(NC(=O)c1c(C(F)(F)F)ccc(C(=O)Nc2nnnn2C)c1C1CC1)C1CC1 (centres unmarked) [Example 1-292]
Pre-emergence action against ALOMY (ALOMY [1]; 20 g/ha, scored visually after 3 weeks, 100% = plants have died, 0% = like control plants): 80%
Pre-emergence action against ALOMY (herbicidal activity) (ALOMY [1]; 80 g/ha, pre-emergence, scored visually after 3 weeks vs untreated controls (100% = plants have died, 0% = like control plants)): 90%
Post-emergence action against MATIN in % (MATIN [2]; dosage 5 g/ha): 80%
Post-emergence action against MATIN in % (MATIN [2]; dosage 20 g/ha): 80%
Post-emergence action against PHBPU in % (PHBPU [3]; dosage 5 g/ha): 80%
Post-emergence action against PHBPU in % (PHBPU [3]; dosage 20 g/ha): 80%
Post-emergence action at 20 g/ha against AMARE in % (AMARE [4]): 100%
Pre-emergence action against VERPE in % (VERPE [5]; dosage 20 g/ha): 100%
Pre-emergence action against VERPE in % (VERPE [5]; dosage 80 g/ha): 100%
Pre-emergence action against PHBPU in % (PHBPU [6]): 80%
Pre-emergence action against ABUTH (herbicidal activity) (ABUTH [7]; [23]): 100%
Pre-emergence action against ABUTH (herbicidal activity in percent) (ABUTH [7]; dosage 20 g/ha, scored visually after 3 weeks vs untreated controls, 100% = plants have died, 0% = like control plants): 100%
Post-emergence action against VIOTR in % (VIOTR [9]; 20 g/ha): 80%
Pre-emergence action against POLCO in % (POLCO; dosage 80 g/ha): 90%
Pre-emergence action against AMARE in % (AMARE [10]; 20 g/ha, scored visually after 3 weeks vs untreated controls, 100% = plants have died, 0% = like control plants): 100%
Pre-emergence action against AMARE in % (AMARE [10]; [23]): 100%
Pre-emergence action against ECHCG in % (ECHCG [11]): 90%
Pre-emergence action against SETVI in % (SETVI [12]; dosage 80 g/ha): 100%
Post-emergence action against SETVI in % (SETVI [13]; dosage 20 g/ha): 90%
Pre-emergence action against MATIN in % (MATIN [14]; dosage 20 g/ha): 100%
Pre-emergence action against MATIN in % (MATIN [14]; dosage 80 g/ha): 100%
Post-emergence action against VERPE in % (VERPE [15]; 5 g/ha): 80%
Post-emergence action against VERPE in % (VERPE [15]; 20 g/ha): 90%
Post-emergence action against ECHCG in % (ECHCG [17]; dosage 5 g/ha): 80%
Post-emergence action against ECHCG in % (ECHCG [17]; dosage 20 g/ha): 80%
Post-emergence action against ALOMY in % (ALOMY [20]): 80%
Pre-emergence action against VIOTR in % (VIOTR [18]; dosage 20 g/ha): 90%
Pre-emergence action against VIOTR in % (VIOTR [18]; dosage 80 g/ha): 100%
Post-emergence action against ABUTH in % (ABUTH [19]; dosage 20 g/ha): 80%
